Earlier results on five compounds are cited in patent publication US20050070607A1, “N-acetylcysteine compositions and methods for the treatment and prevention of cysteine/glutathione deficiency in diseases and conditions” (priority 2003, published 2005).

The test system of one data set is acute lung injury. Conditions: RBC GSH, days of acute lung injury, cardiac index; NAC 70 mg/kg q 8 hr IV; OTZ 63 mg/kg q 8 hr IV; n 48; 10 days; Bernard 1997[222].
The test system of a further data set is human atherosclerosis. The settings on record: brachial artery flow-mediated dilation; 4.5 g OTC po; n 48; 4 hours; Vita 1998[15].
The subject of the next data set is HIV infected individuals. The settings on record: whole blood GSH; OTC 1500-3000 mg/day po; n 37; 4 weeks; Barditch-Crovo 1998[283].
In the next data set the test system is Cystic Fibrosis (CF). The settings on record: air trapping and FEV1; NAC or Ambroxol 200 mg 3 times daily; n 36; 12 weeks; Ratjen 1985[274].
In another data set the test system is chronic renal failure. The settings on record: regular users consuming >=1.4 g/day on average, absence of aspirin use; Fored[184].

Consider `O=C1N[C@H](C(=O)O)CS1` [OTZ], for which the Beneficial effects result in the data set with acute lung injury is reported as “Beneficial”. Consider `CSCC[C@H](N)C(=O)O` [methionine], for which the “Hearing loss and cochlear damage from aminoglycoside antibiotics and cisplatin” value with cochlea (animal models [245-247]) is “greatly reduced”. Also, the “permanent cochlear damage due to acute acoustic overexposure” value in the data set on cochlea (animal models, systemic administration [246,248]) is “almost completely prevented”. For `O=C1N[C@H](C(=O)O)CS1` [OTC, L-2-oxothiazolidine-4-carboxylic acid], the Beneficial effects result with human atherosclerosis and with HIV infected individuals was “Beneficial” each time. On to `Nc1c(Br)cc(Br)cc1CN[C@H]1CC[C@H](O)CC1` [Ambroxol], for which the Beneficial effects result with Cystic Fibrosis (CF) is listed as “Beneficial”. As to `CC(=O)Nc1ccc(O)cc1` [acetaminophen], the “relative risk of chronic renal failure” value in the data set on chronic renal failure is reported as 5.3.
